One experiment addresses T1, human LXRbeta (Homo sapiens, UniProt P55055).
T1 construct: LXRbeta (amino acid 216-461); expressed in transfected cells; host or cells: U2/OS osteosarcoma cells, electroporated with pSGGAL-LXRbeta
T1 sequence (P55055 215-460 limits assumed): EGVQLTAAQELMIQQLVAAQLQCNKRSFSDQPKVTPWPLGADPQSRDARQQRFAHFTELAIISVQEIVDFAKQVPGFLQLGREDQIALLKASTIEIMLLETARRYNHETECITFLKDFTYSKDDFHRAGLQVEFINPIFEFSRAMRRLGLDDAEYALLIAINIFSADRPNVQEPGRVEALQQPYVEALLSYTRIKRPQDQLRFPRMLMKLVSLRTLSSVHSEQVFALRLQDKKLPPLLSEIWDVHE
The experiment in a line: Transactivation (reporter gene) assay, GAL4-LXRbeta LBD luciferase in U2/OS cells. Type of experiment: cell-based. The note with it: U2/OS osteosarcoma cells, 48 h; T0901317 at 1 μM as 100% control. The procedure: (§1) Expression vectors were prepared by inserting the ligand binding domain cDNA (complementary DNA) of human LXRalpha (amino acid 205447) and LXRbeta (amino acid 216-461) in frame with, 3′ to the yeast GAL4 transcription factor DNA binding domain and the nuclear localization signal from the T-antigen of Polyoma Virus in the eucaryotic expression vector pSG5 (Stratagene). The resulting expression vectors pSGGAL-LXRalpha and pSGGAL-LXRbeta were used in cotransfection experiments together with the pGL3 luciferase reporter plasmid containing a minirnal SV40 promoter and five copies of the UAS GAL4 recognition site. 2.5 μg pSGGAL-LXRalpha or beta were mixed with 25 μg pGL3 5×UAS and 22.5 μg pBluscript in 0.95 mL ice cold PBS containing approx. 4-9 milj. U2/OS osteosarcoma cells. After a five minute incubation on ice the cell/DNA mixture was electroporated in 0.4 cm cuvettes at 960 μF, 230 V using a BioRad electroporator and diluted to 0.32 milj cells/mL in complete DMEM (Dulbecco's Modified Eagle Medium) medium (Gibco 31966-021). Cells from at least two electroporations were pooled in order to avoid variations between different electroportations. […] Luciferase activity was measured using the “Luminescence 384 protocol” in the Wallac Victor reader after 15 min. incubation at room temperature. […]

For the next experiment, the target named is T2, human LXRalpha (Homo sapiens, UniProt Q13133).
T2 construct: human LXRalpha (amino acid 205-447); expressed in transfected cells; host or cells: U2/OS osteosarcoma cells, electroporated with pSGGAL-LXRalpha
T2 sequence (Q13133 205-447): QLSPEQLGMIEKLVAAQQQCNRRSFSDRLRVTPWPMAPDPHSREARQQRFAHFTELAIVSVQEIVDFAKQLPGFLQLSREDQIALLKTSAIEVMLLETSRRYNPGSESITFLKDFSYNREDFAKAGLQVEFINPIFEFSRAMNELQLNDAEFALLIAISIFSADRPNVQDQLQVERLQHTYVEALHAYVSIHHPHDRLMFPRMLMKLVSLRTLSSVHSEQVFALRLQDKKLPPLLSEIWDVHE
Description: Transactivation (reporter gene) assay, GAL4-LXRalpha LBD luciferase in U2/OS cells. The class given is cell-based. The note with it: U2/OS osteosarcoma cells, 48 h; T0901317 at 1 μM as 100% control. Here is the method:
as §1

The values that follow come from patent US20080255207A1, “5-Thioxo-1,5-Dihydro-2H-Pyrrol-2-One Derivatives As Liver X Receptor Modulators” (ASTRAZENECA AB, priority 2005, published 2008).

For orientation: EC50 means the concentration at which the effect is half-maximal. A high value points to a less potent agent.

In the case of `Nc1ccc(CN2C(=O)C(Nc3ccc(OC(F)F)cc3)=C(c3ccccc3)C2=S)cn1` [Example 1, 1-[(6-aminopyridin-3-yl)methyl]-3-{[4-(difluoromethoxy)phenyl]amino}-4-phenyl-5-thioxo-1,5-dihydro-2H-pyrrol-2-one], the results for the concentration giving a half-maximal response (EC50) at human LXRbeta and on human LXRalpha were 320 nM and 280 nM, respectively.
